Columns and labels:
[1] = target: Activin receptor type-2A (Homo sapiens) (UniProt P27037)
[2] = target: Atypical kinase COQ8B, mitochondrial (Homo sapiens) (UniProt Q96D53)
[3] = target: RAC-alpha serine/threonine-protein kinase (Homo sapiens) (UniProt P31749)
[4] = target: RAC-beta serine/threonine-protein kinase (Homo sapiens) (UniProt P31751)
[5] = target: RAC-gamma serine/threonine-protein kinase (Homo sapiens) (UniProt Q9Y243)
[6] = target: Protein-tyrosine kinase 6 (Homo sapiens) (UniProt Q13882)
[7] = target: Serine/threonine-protein kinase BRSK1 (Homo sapiens) (UniProt Q8TDC3)
[8] = target: Calcium/calmodulin-dependent protein kinase type 1B (Homo sapiens) (UniProt Q6P2M8)
[9] = target: Calcium/calmodulin-dependent protein kinase kinase 1 (Homo sapiens) (UniProt Q8N5S9)
[10] = target: Dual specificity protein kinase CLK3 (Homo sapiens) (UniProt P49761)
[11] = target: Megakaryocyte-associated tyrosine-protein kinase (Homo sapiens) (UniProt P42679)
[12] = target: Death-associated protein kinase 2 (Homo sapiens) (UniProt Q9UIK4)
[13] = target: Serine/threonine-protein kinase MRCK gamma (Homo sapiens) (UniProt Q6DT37)
[14] = target: Dual specificity tyrosine-phosphorylation-regulated kinase 1B (Homo sapiens) (UniProt Q9Y463)
[15] = test system: Epidermal growth factor receptor (Homo sapiens), P00533 [T790M]
[16] = target: Ephrin type-A receptor 7 (Homo sapiens) (UniProt Q15375)
[17] = target: Ephrin type-B receptor 1 (Homo sapiens) (UniProt P54762)
[18] = target: Insulin receptor (Homo sapiens) (UniProt P06213)
[19] = target: Mitogen-activated protein kinase 9 (Homo sapiens) (UniProt P45984)
[20] = target: Serine/threonine-protein kinase LATS1 (Homo sapiens) (UniProt O95835)
[21] = target: Serine/threonine-protein kinase MAK (Homo sapiens) (UniProt P20794)
[22] = target: MAP kinase-activated protein kinase 5 (Homo sapiens) (UniProt Q8IW41)
[23] = target: Microtubule-associated serine/threonine-protein kinase 1 (Homo sapiens) (UniProt Q9Y2H9)
[24] = target: Dual specificity mitogen-activated protein kinase kinase 3 (Homo sapiens) (UniProt P46734)
[25] = target: Serine/threonine-protein kinase MRCK alpha (Homo sapiens) (UniProt Q5VT25)
[26] = target: Serine/threonine-protein kinase mTOR (Homo sapiens) (UniProt P42345)
[27] = target: Myosin light chain kinase 2, skeletal/cardiac muscle (Homo sapiens) (UniProt Q9H1R3)
[28] = target: Serine/threonine-protein kinase 38-like (Homo sapiens) (UniProt Q9Y2H1)
[29] = target: Serine/threonine-protein kinase Nek4 (Homo sapiens) (UniProt P51957)
[30] = target: Mitogen-activated protein kinase 12 (Homo sapiens) (UniProt P53778)
[31] = target: Serine/threonine-protein kinase PAK 3 (Homo sapiens) (UniProt O75914)
[32] = target: Phosphatidylinositol 4-kinase beta (Homo sapiens) (UniProt Q9UBF8)
[33] = target: 1-phosphatidylinositol 3-phosphate 5-kinase (Homo sapiens) (UniProt Q9Y2I7)
[34] = target: cAMP-dependent protein kinase catalytic subunit PRKX (Homo sapiens) (UniProt P51817)
[35] = target: Protein-tyrosine kinase 2-beta (Homo sapiens) (UniProt Q14289)
[36] = target: Proto-oncogene tyrosine-protein kinase ROS (Homo sapiens) (UniProt P08922)
[37] = target: Serine/threonine-protein kinase SBK1 (Homo sapiens) (UniProt Q52WX2)
[38] = target: Serine/threonine-protein kinase Sgk1 (Homo sapiens) (UniProt O00141)
[39] = target: Tyrosine-protein kinase SYK (Homo sapiens) (UniProt P43405)
[40] = target: Activated CDC42 kinase 1 (Homo sapiens) (UniProt Q07912)
[41] = target: Vascular endothelial growth factor receptor 2 (Homo sapiens) (UniProt P35968)
[42] = target: Serine/threonine-protein kinase 32B (Homo sapiens) (UniProt Q9NY57)
[43] = target: D(1A) dopamine receptor (Homo sapiens) (UniProt P21728); details: Compound concentration 10.0 uM
[44] = target: Histamine H3 receptor (Homo sapiens) (UniProt Q9Y5N1); details: Compound concentration 10.0 uM
[45] = target: Histamine H4 receptor (Homo sapiens) (UniProt Q9H3N8); details: Compound concentration 10.0 uM
[46] = Compound concentration 1000.0 nM
[47] = Compound concentration 100.0 nM

Chain of Serine/threonine-protein kinase Sgk1 (Homo sapiens) (O00141 whole entry): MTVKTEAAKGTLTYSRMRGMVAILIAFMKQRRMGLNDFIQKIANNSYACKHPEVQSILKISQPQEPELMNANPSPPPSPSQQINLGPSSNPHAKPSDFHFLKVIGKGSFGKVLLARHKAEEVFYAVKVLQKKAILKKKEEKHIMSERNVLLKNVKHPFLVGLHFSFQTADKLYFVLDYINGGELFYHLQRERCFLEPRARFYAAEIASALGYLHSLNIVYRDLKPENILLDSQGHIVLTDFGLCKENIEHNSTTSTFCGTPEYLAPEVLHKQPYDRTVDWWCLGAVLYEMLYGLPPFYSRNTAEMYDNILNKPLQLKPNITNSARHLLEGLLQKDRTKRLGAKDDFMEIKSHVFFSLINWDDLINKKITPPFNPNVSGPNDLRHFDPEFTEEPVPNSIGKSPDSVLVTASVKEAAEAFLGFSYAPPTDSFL
Chain of 1-phosphatidylinositol 3-phosphate 5-kinase (Homo sapiens) (Q9Y2I7 whole entry): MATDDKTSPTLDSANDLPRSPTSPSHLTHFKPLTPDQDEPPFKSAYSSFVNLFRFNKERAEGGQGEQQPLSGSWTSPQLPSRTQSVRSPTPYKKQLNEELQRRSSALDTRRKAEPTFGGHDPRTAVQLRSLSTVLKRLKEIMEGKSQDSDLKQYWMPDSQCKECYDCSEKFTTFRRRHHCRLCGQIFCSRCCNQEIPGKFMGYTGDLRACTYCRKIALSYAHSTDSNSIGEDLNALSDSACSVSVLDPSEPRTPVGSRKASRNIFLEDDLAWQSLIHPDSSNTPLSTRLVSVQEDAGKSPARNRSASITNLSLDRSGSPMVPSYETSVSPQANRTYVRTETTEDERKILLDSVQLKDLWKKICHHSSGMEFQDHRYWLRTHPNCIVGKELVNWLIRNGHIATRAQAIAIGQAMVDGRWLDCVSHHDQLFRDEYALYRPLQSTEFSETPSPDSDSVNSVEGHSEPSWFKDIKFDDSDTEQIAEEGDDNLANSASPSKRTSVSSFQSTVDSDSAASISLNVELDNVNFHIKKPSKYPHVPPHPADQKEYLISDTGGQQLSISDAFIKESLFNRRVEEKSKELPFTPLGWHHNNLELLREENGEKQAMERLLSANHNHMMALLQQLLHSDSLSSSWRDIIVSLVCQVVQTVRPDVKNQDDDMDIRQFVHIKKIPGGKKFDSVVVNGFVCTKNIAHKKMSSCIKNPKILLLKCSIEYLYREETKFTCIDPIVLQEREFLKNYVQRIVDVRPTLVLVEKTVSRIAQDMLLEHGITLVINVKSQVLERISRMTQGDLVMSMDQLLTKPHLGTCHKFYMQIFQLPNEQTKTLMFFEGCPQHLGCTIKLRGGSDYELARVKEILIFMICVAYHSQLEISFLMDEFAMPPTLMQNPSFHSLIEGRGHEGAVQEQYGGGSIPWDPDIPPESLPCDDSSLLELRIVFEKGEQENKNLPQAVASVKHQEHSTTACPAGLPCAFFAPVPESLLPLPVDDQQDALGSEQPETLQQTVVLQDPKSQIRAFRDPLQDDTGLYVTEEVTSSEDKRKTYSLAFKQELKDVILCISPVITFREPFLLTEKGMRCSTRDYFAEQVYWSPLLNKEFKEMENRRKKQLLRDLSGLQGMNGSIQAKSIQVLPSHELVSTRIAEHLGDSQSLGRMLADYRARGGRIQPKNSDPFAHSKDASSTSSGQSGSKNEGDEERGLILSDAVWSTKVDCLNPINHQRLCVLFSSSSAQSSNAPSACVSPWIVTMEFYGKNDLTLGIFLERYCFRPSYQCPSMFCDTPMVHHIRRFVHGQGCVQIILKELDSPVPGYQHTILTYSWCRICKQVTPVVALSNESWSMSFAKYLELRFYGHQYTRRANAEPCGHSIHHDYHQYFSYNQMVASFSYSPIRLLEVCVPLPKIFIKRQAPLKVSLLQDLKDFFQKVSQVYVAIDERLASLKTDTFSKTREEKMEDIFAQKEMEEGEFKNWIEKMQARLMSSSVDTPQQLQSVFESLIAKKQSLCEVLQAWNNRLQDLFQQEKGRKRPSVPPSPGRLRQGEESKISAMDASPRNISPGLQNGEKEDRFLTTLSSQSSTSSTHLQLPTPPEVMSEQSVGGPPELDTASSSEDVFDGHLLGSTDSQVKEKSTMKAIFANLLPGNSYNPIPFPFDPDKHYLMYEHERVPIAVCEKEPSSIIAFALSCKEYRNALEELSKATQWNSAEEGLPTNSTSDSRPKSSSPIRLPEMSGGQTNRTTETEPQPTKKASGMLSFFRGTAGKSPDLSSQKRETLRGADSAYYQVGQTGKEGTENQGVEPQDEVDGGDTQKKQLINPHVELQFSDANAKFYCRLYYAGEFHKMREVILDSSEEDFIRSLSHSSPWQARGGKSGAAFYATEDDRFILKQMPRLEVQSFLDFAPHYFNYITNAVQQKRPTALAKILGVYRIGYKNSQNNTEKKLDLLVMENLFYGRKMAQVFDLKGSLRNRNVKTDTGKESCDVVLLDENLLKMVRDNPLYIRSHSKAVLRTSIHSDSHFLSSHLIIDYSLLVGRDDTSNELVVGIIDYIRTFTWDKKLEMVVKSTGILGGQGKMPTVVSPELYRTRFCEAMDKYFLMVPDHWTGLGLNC
Chain of Protein-tyrosine kinase 2-beta (Homo sapiens) (Q14289 whole entry, looked up): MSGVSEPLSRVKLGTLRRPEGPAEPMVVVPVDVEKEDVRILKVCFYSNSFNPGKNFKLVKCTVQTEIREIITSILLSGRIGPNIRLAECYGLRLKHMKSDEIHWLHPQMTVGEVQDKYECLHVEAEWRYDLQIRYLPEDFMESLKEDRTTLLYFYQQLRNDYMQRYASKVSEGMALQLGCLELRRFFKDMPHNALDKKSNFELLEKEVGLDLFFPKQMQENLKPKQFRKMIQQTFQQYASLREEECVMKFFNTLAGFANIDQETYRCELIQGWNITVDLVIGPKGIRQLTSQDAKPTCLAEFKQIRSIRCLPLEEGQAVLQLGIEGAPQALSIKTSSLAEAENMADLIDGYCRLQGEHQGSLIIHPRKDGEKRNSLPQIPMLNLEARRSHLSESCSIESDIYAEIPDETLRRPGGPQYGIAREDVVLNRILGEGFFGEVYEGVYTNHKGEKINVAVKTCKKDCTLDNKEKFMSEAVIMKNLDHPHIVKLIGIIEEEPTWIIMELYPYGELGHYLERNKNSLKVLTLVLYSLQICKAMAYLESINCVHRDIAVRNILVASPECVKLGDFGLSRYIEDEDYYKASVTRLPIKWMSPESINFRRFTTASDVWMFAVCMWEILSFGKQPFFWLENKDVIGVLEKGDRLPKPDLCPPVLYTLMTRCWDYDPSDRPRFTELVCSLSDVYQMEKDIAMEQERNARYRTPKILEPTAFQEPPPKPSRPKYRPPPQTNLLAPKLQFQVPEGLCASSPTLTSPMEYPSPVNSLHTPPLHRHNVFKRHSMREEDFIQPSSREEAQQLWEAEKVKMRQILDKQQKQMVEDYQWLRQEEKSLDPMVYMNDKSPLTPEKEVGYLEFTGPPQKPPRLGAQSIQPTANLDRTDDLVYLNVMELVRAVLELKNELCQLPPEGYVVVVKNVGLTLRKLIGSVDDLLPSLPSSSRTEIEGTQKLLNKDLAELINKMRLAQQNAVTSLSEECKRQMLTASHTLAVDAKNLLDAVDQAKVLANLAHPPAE
Chain of Serine/threonine-protein kinase SBK1 (Homo sapiens) (Q52WX2 whole entry): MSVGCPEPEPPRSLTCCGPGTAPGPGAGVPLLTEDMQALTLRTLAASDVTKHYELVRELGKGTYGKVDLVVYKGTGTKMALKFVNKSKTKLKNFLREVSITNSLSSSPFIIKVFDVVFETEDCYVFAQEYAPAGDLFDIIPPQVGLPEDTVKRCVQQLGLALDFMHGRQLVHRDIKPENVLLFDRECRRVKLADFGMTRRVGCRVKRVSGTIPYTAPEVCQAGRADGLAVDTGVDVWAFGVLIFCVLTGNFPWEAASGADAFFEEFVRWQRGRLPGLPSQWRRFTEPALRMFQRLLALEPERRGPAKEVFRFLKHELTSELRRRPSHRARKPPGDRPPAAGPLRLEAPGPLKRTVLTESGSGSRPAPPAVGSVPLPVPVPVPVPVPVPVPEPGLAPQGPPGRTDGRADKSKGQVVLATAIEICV
Chain of MAP kinase-activated protein kinase 5 (Homo sapiens) (Q8IW41 whole entry): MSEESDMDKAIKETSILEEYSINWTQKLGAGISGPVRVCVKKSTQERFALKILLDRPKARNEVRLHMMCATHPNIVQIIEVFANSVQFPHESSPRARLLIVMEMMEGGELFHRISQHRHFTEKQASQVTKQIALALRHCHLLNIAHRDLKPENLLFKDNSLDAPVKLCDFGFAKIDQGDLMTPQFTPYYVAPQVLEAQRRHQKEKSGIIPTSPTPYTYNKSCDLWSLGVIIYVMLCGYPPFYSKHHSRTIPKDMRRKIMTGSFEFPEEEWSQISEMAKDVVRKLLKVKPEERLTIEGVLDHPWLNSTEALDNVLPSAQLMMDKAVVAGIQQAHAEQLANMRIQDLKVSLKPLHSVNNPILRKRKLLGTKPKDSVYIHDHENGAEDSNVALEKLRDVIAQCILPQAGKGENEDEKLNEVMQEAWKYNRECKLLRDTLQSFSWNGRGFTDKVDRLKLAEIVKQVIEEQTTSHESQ
Chain of RAC-alpha serine/threonine-protein kinase (Homo sapiens) (P31749 whole entry): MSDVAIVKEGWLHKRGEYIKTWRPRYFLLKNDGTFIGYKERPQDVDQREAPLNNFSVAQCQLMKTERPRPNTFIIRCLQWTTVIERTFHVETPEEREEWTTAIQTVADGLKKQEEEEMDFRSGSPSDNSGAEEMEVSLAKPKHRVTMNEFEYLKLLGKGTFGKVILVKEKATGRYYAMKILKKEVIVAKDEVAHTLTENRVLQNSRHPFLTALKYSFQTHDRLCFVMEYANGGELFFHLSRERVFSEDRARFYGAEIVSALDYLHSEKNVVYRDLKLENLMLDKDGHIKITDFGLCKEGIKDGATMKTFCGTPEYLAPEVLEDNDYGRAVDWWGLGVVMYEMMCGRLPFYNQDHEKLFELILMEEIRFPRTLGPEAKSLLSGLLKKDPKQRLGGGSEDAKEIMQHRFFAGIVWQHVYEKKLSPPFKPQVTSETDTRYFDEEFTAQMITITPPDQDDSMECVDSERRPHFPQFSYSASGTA

C[C@H](NC(=O)Nc1cc2[nH]ncc2c(CO)n1)c1ccccn1 [ERKi-NC]
residual activity [1, 46]: 85.6% | residual activity [2, 46]: 99.8% | residual activity [3, 46]: 90% | residual activity [4, 46]: 100% | residual activity [5, 46]: 100% | residual activity [6, 46]: 100% | residual activity [7, 46]: 100% | residual activity [8, 46]: 98.5% | residual activity [9, 46]: 100% | residual activity [10, 46]: 100% | residual activity [11, 46]: 100% | residual activity [12, 46]: 100% | residual activity [13, 46]: 100% | residual activity [14, 46]: 57.6% | residual activity [15, 46]: 100% | residual activity [16, 46]: 97.3% | residual activity [17, 46]: 100% | residual activity [18, 46]: 100% | residual activity [19, 46]: 100% | residual activity [20, 46]: 100% | residual activity [21, 46]: 84.1% | residual activity [22, 46]: 100% | residual activity [23, 46]: 100% | residual activity [24, 46]: 76.3% | residual activity [25, 46]: 93.5% | residual activity [26, 46]: 93.1% | residual activity [27, 46]: 76.6% | residual activity [28, 46]: 100% | residual activity [29, 46]: 83.9% | residual activity [30, 46]: 48.4% | residual activity [31, 46]: 100% | residual activity [32, 46]: 100% | residual activity [33, 46]: 100% | residual activity [34, 46]: 100% | residual activity [35, 46]: 100% | residual activity [36, 46]: 85% | residual activity [37, 46]: 100% | residual activity [38, 46]: 97.4% | residual activity [39, 46]: 100% | residual activity [40, 46]: 100% | residual activity [41, 46]: 100% | residual activity [42, 46]: 100% | inhibition [43]: 4.28% | inhibition [44]: 21.1% | inhibition [45]: 41.9%

C[C@@H](NC(=O)Nc1cc2[nH]ncc2c(CO)n1)c1ccccc1 [ERKi]
residual activity [1, 47]: 74.7% | residual activity [2, 47]: 86.7% | residual activity [3, 47]: 100% | residual activity [4, 47]: 100% | residual activity [5, 47]: 73.3% | residual activity [6, 47]: 86.6% | residual activity [7, 47]: 88.4% | residual activity [8, 47]: 91.2% | residual activity [9, 47]: 87.5% | residual activity [10, 47]: 82.2% | residual activity [11, 47]: 72.1% | residual activity [12, 47]: 66.3% | residual activity [13, 47]: 98.2% | residual activity [14, 47]: 95.9% | residual activity [15, 47]: 82.1% | residual activity [16, 47]: 91.1% | residual activity [17, 47]: 91.1% | residual activity [18, 47]: 74.7% | residual activity [19, 47]: 79.5% | residual activity [20, 47]: 59.3% | residual activity [21, 47]: 97.9% | residual activity [22, 47]: 80% | residual activity [23, 47]: 93.9% | residual activity [24, 47]: 77% | residual activity [25, 47]: 86.5% | residual activity [26, 47]: 71.8% | residual activity [27, 47]: 100% | residual activity [28, 47]: 72.7% | residual activity [29, 47]: 86.6% | residual activity [30, 47]: 80.7% | residual activity [31, 47]: 100% | residual activity [32, 47]: 82.1% | residual activity [33, 47]: 76.7% | residual activity [34, 47]: 46.1% | residual activity [35, 47]: 75% | residual activity [36, 47]: 100% | residual activity [37, 47]: 53.3% | residual activity [38, 47]: 62.5% | residual activity [39, 47]: 100% | residual activity [40, 47]: 94.8% | residual activity [41, 47]: 100% | residual activity [42, 47]: 96.6% | inhibition [43]: -3.5% | inhibition [44]: 7.46% | inhibition [45]: 35.3%

— ChEMBL document CHEMBL4507286 (2021)
